# Test results: PMC5063900, “A phase 1 study of the safety, tolerability, pharmacokinetics, and pharmacodynamics of TAK-063, a selective PDE10A inhibitor” (Psychopharmacology, 2016)
# Marks after values point to notes of the source that are not given here.
# Experiments:
# [1] = stated in discussion without method or reference; cited from earlier work
# [2] = Food effect on pharmacokinetics, 100 mg fed vs fasting; format: in vivo, human
# Procedure: Healthy Japanese and non-Japanese subjects between 18 and 55 years of age were recruited to participate in the study. Criteria for exclusion included prior treatment with any investigational compound within 30 days of the first TAK-063 dose, a positive test for drugs of abuse or nicotine, and an increased risk for suicide. Subjects were randomized into 1 of 6 dose cohorts (3, 10, 30, 100, 300, and 1000 mg), with each cohort containing 11 TAK-063 subjects (five Japanese, six non-Japanese) and three placebo subjects (one Japanese, two non-Japanese) receiving a single dose under fasting conditions. […] Plasma concentrations of TAK-063 and its metabolite M-I were subsequently measured by validated liquid chromatography-tandem mass spectrometry with a validated range of 0.5 to 1000 ng/mL for both analytes. The PK parameters analyzed for TAK-063 and its metabolite M-I in plasma and urine included area under the plasma concentration-time curve from time 0 to infinity (AUC (0-inf)), maximum observed plasma concentration (C max), time to reach C max (T max), terminal elimination half-life (T 1/2), oral clearance (CL/F), volume of distribution (Vz/F), and renal clearance (CLr). […] A power model was used to evaluate dose proportionality by race for fasted subjects; in the event of no observed race effect, dose proportionality was assessed for all subjects. […]
# [3] = Plasma and urine pharmacokinetics after single oral dose under fasting conditions; format: in vivo, human; conditions: for AUC(0-inf) / C max / CL/F (oral clearance) / T 1/2 / Vz/F (volume of distribution) / T max: plasma
# Procedure: Healthy Japanese and non-Japanese subjects between 18 and 55 years of age were recruited to participate in the study. Criteria for exclusion included prior treatment with any investigational compound within 30 days of the first TAK-063 dose, a positive test for drugs of abuse or nicotine, and an increased risk for suicide. Subjects were randomized into 1 of 6 dose cohorts (3, 10, 30, 100, 300, and 1000 mg), with each cohort containing 11 TAK-063 subjects (five Japanese, six non-Japanese) and three placebo subjects (one Japanese, two non-Japanese) receiving a single dose under fasting conditions. Following a washout period of 7 days, subjects in cohort 3 (100 mg) received the same dose (100 mg) but under fed conditions. Serial plasma and urine samples were collected from all subjects prior to dosing and at specific time points or intervals up to 96 h postdose. Pharmacokinetic samples were processed immediately and frozen at −20 °C as duplicate sets. Plasma concentrations of TAK-063 and its metabolite M-I were subsequently measured by validated liquid chromatography-tandem mass spectrometry with a validated range of 0.5 to 1000 ng/mL for both analytes. The PK parameters analyzed for TAK-063 and its metabolite M-I in plasma and urine included area under the plasma concentration-time curve from time 0 to infinity (AUC (0-inf)), maximum observed plasma concentration (C max), time to reach C max (T max), terminal elimination half-life (T 1/2), oral clearance (CL/F), volume of distribution (Vz/F), and renal clearance (CLr). Metabolite-to-parent ratios were estimated from C max and AUC (0-inf) data. All statistical analyses were generated using SAS Version 9.2 (SAS, Cary, NC, USA). The PK parameters were derived using non-compartmental methods with WinNonlin Enterprise Version 6.3 (Pharsight Corp., Mountain View, CA, USA). Frequency or descriptive statistics were used for summary of data. Where indicated, percent coefficient of variation was included in the summary of continuous data. All statistical tests were 2-tailed at α = 0.05 level for significance unless otherwise stated. A power model was used to evaluate dose proportionality by race for fasted subjects; in the event of no observed race effect, dose proportionality was assessed for all subjects. To evaluate the food effect, a paired t test was performed on T max and natural log-transformed C max, and AUCs. An ANCOVA model with baseline scores and race as covariates was used to assess the effects of TAK-063 on CNSVS domain scores.
# [4] = Japanese subjects, TAK-063 3 mg (n = 5), arithmetic mean
# [5] = Japanese subjects, TAK-063 10 mg (n = 5), arithmetic mean
# [6] = Japanese subjects, TAK-063 30 mg (n = 5), arithmetic mean
# [7] = Japanese subjects, TAK-063 100 mg (n = 4), arithmetic mean
# [8] = Japanese subjects, TAK-063 100 mg (n = 5; TAK-063 n = 4), arithmetic mean
# [9] = Japanese subjects, TAK-063 300 mg (n = 4), arithmetic mean
# [10] = Japanese subjects, TAK-063 300 mg (n = 5; TAK-063 n = 4), arithmetic mean
# [11] = Japanese subjects, TAK-063 1000 mg (n = 5), arithmetic mean
# [12] = fasting, all subjects, TAK-063 3 mg (n = 11), arithmetic mean (% CV)
# [13] = fasting, all subjects, TAK-063 3 mg (n = 11; M-I n = 10), arithmetic mean (% CV)
# [14] = fasting, all subjects, TAK-063 10 mg (n = 11), arithmetic mean (% CV)
# [15] = fasting, all subjects, TAK-063 30 mg (n = 11), arithmetic mean (% CV)
# [16] = fasting, all subjects, TAK-063 100 mg (n = 9), arithmetic mean (% CV)
structure (smiles),measurement,setting,value
COc1cn(-c2ccc(-n3cccn3)cc2F)nc(-c2ccnn2-c2ccccc2)c1=O [TAK-063],Aqueous solubility,[1],low
same,Median T max,[2]; fed (standard meal),6 h
same,"Oral bioavailability, fed relative to fasting",[2]; standard meal,approximately 2 fold
same,Increase in AUC over the dose range,"[3]; 333-fold increase in dose (3 to 1000 mg), fasting",up to 26 fold
same,AUC(0-inf),[3]; [4],250.3 ng·h/mL
same,C max,[3]; [4],16.1 ng/mL
same,CL/F (oral clearance),[3]; [4],12.5 L/h
same,T 1/2,[3]; [4],15.9 h
same,Vz/F (volume of distribution),[3]; [4],269.5 L
same,T max,"[3]; Japanese subjects, TAK-063 3 mg (n = 5), median",4.0 h
same,AUC(0-inf),[3]; [5],659.2 ng·h/mL
same,C max,[3]; [5],30.2 ng/mL
same,CL/F (oral clearance),[3]; [5],15.8 L/h
same,T 1/2,[3]; [5],18.2 h
same,Vz/F (volume of distribution),[3]; [5],412.2 L
same,T max,"[3]; Japanese subjects, TAK-063 10 mg (n = 5), median",4.0 h
same,AUC(0-inf),[3]; [6],1027.3 ng·h/mL
same,C max,[3]; [6],55.7 ng/mL
same,CL/F (oral clearance),[3]; [6],35.2 L/h
same,T 1/2,[3]; [6],17.8 h
same,Vz/F (volume of distribution),[3]; [6],889.4 L
same,T max,"[3]; Japanese subjects, TAK-063 30 mg (n = 5), median",4.0 h
same,AUC(0-inf),[3]; [7],1459.1 ng·h/mL
same,T 1/2,[3]; [7],20.7 h
same,C max,"[3]; Japanese subjects, TAK-063 100 mg (n = 5), arithmetic mean",89.9 ng/mL
same,T max,"[3]; Japanese subjects, TAK-063 100 mg (n = 5), median",3.0 h
same,CL/F (oral clearance),[3]; [8],75.8 L/h
same,Vz/F (volume of distribution),[3]; [8],2288.5 L
same,AUC(0-inf),[3]; [9],1636.0 ng·h/mL
same,T 1/2,[3]; [9],20.3 h
same,C max,"[3]; Japanese subjects, TAK-063 300 mg (n = 5), arithmetic mean",98.2 ng/mL
same,T max,"[3]; Japanese subjects, TAK-063 300 mg (n = 5), median",4.0 h
same,CL/F (oral clearance),[3]; [10],212.8 L/h
same,Vz/F (volume of distribution),[3]; [10],6409.8 L
same,AUC(0-inf),[3]; [11],4931.4 ng·h/mL
same,C max,[3]; [11],264.0 ng/mL
same,CL/F (oral clearance),[3]; [11],233.8 L/h
same,T 1/2,[3]; [11],11.7 h
same,Vz/F (volume of distribution),[3]; [11],3953.4 L
same,T max,"[3]; Japanese subjects, TAK-063 1000 mg (n = 5), median",4.0 h
same,C max,[3]; [12],11.8 (51) ng/mL
same,CL/F (oral clearance),[3]; [12],14.0 (48) L/h
same,Vz/F (volume of distribution),[3]; [12],407.0 (64) L
same,T max,"[3]; fasting, all subjects, TAK-063 3 mg (n = 11), median (minimum, maximum)","4.0 (2.0, 24.0) h"
same,AUC(0-inf),[3]; [13],244.9 (32) ng·h/mL
same,T 1/2,[3]; [13],20.4 (48) h
same,AUC(0-inf),[3]; [14],576.7 (29) ng·h/mL
same,C max,[3]; [14],26.7 (34) ng/mL
same,CL/F (oral clearance),[3]; [14],18.7 (30) L/h
same,T 1/2,[3]; [14],19.9 (18) h
same,Vz/F (volume of distribution),[3]; [14],529.5 (29) L
same,T max,"[3]; fasting, all subjects, TAK-063 10 mg (n = 11), median (minimum, maximum)","4.0 (2.0, 16.0) h"
same,AUC(0-inf),[3]; [15],1003.6 (42) ng·h/mL
same,C max,[3]; [15],46.9 (61) ng/mL
same,CL/F (oral clearance),[3]; [15],33.1 (27) L/h
same,T 1/2,[3]; [15],20.4 (30) h
same,Vz/F (volume of distribution),[3]; [15],954.8 (33) L
same,T max,"[3]; fasting, all subjects, TAK-063 30 mg (n = 11), median (minimum, maximum)","4.0 (3.0, 16.0) h"
same,AUC(0-inf),[3]; [16],1406.8 (38)^c ng·h/mL
same,T 1/2,[3]; [16],24.6 (37)^c h
same,C max,"[3]; fasting, all subjects, TAK-063 100 mg (n = 11), arithmetic mean (% CV)",80.5 (48) ng/mL
same,T max,"[3]; fasting, all subjects, TAK-063 100 mg (n = 11), median (minimum, maximum)","3.0 (1.5, 6.0) h"
